In US9833497B2, “Human originated EGF domain proteins and use of the same” (CHENGDU SOURCEBIO LIMITED-LIABILITY COMPANY, priority 2013, dated 2017):

Columns and labels:
Format in all cases: cell-based
[1] = system: Proteus mirabilis; assay: MIC against Gram-negative bacteria: Proteus mirabilis
Method in brief: (§1)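 LB broth cultures at McFarland 0.5, spun down, resuspended, diluted to 5×10^5 CFU/mL final. Two-fold serial dilutions of purified human EGF domain proteins, triplicate. 37° C, 175 rpm shaking. Endpoint: no visible growth.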

[2] = system: Proteus vulgaris; assay: MIC against Gram-negative bacteria: Proteus vulgaris
Method in brief: as §1

[3] = system: E. coli DH5α; assay: Antibacterial activity: MIC and growth curve against E. coli DH5α in 96-well plate; conditions: minimal inhibitory concentration against E. coli DH5α; 96-well plate, 5×10^5 CFU/mL, 37° C., judged after 8 h
Method in brief: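 Log-phase bacteria (OD600 ~0.5) resuspended in LB at 5×10^5 CFU/mL, exposed to recombinant protein at 50, 25, 12.5 μg/mL final in triplicate, 37 °C shaking at 175 rpm. OD600 read every 30 min; MIC is lowest concentration showing no growth.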

[4] = system: Moraxella catarrhalis; assay: MIC against Gram-negative bacteria: Moraxella catarrhalis
Method in brief: as §1

[5] = system: E. coli BL21; assay: MIC against Gram-negative bacteria: E. coli BL21
Method in brief: as §1

[6] = system: Citrobacter diversus; assay: MIC against Gram-negative bacteria: Citrobacter diversus
Method in brief: as §1

[7] = system: Enterobacter cloacae; assay: MIC against Gram-negative bacteria: Enterobacter cloacae
Method in brief: as §1

[8] = system: Serratia marcescens; assay: MIC against Gram-negative bacteria: Serratia marcescens
Method in brief: as §1

[9] = system: Aeromonas hydrophila; assay: MIC against Gram-negative bacteria: Aeromonas hydrophila
Method in brief: as §1

[10] = system: Klebsiella pneumonia; assay: MIC against Gram-negative bacteria: Klebsiella pneumonia
Method in brief: as §1

[11] = system: Pseudomonas aeruginosa; assay: MIC against Gram-negative bacteria: Pseudomonas aeruginosa
Method in brief: as §1

[12] = Proteus mirabilis, 96-well plate, 5×10^5 CFU/mL, 37° C., 10 h
[13] = Proteus vulgaris, 96-well plate, 5×10^5 CFU/mL, 37° C., 10 h
[14] = Moraxella catarrhalis, 96-well plate, 5×10^5 CFU/mL, 37° C., 10 h
[15] = E. coli BL21, 96-well plate, 5×10^5 CFU/mL, 37° C., 10 h
[16] = Citrobacter diversus, 96-well plate, 5×10^5 CFU/mL, 37° C., 10 h
[17] = Enterobacter cloacae, 96-well plate, 5×10^5 CFU/mL, 37° C., 10 h
[18] = Serratia marcescens, 96-well plate, 5×10^5 CFU/mL, 37° C., 10 h
[19] = Aeromonas hydrophila, 96-well plate, 5×10^5 CFU/mL, 37° C., 10 h
[20] = Klebsiella pneumonia, 96-well plate, 5×10^5 CFU/mL, 37° C., 10 h
[21] = Pseudomonas aeruginosa, 96-well plate, 5×10^5 CFU/mL, 37° C., 10 h
[22] = P. mirabilis, 10 h cultivation at 37° C.
[23] = P. vulgaris, 10 h cultivation at 37° C.
[24] = M. catarrhalis, 10 h cultivation at 37° C.
[25] = E. coli BL21, 10 h cultivation at 37° C.
[26] = C. diversus, 10 h cultivation at 37° C.
[27] = E. cloacae, 10 h cultivation at 37° C.
[28] = S. marcescens, 10 h cultivation at 37° C.
[29] = A. hydrophila, 10 h cultivation at 37° C.
[30] = K. pneumonia, 10 h cultivation at 37° C.
[31] = P. aeruginosa, 10 h cultivation at 37° C.
[32] = 10 h cultivation at 37° C., 5×10^5 CFU/mL, two-fold serial dilution
[33] = 96-well plate, 5×10^5 CFU/mL, 37° C., 10 h

PRT1277 (ETCAVNNGGCDSKCHDAATGVHCTCPVGFMLQPDRKTCK; listed as Homo sapiens)
MIC against P. mirabilis [1, 12]: 12.5 µg/mL
MIC against P. vulgaris [2, 13]: 25 µg/mL
MIC [3]: 12.5 µg/mL
MIC against M. catarrhalis [4, 14]: 25 µg/mL
MIC against E. coli BL21 [5, 15]: 50 µg/mL
MIC against C. diversus [6, 16]: 12.5 µg/mL
MIC against E. cloacae [7, 17]: 12.5 µg/mL
MIC against S. marcescens [8, 18]: 12.5 µg/mL
MIC against A. hydrophila [9, 19]: 50 µg/mL
MIC against K. pneumonia [10, 20]: 50 µg/mL
MIC against P. aeruginosa [11, 21]: 12.5 µg/mL

PRT991 (RGLLCGSFPEPCANGGTCLSLSLGQGTCQCAPGFLGETCQ; listed as Homo sapiens)
MIC [1, 22]: 25 µg/mL
MIC [2, 23]: 12.5 µg/mL
MIC [3]: 50 µg/mL
MIC [4, 24]: 12.5 µg/mL
MIC [5, 25]: 25 µg/mL
MIC [6, 26]: 50 µg/mL
MIC [7, 27]: 50 µg/mL
MIC [8, 28]: 25 µg/mL
MIC [9, 29]: 12.5 µg/mL
MIC [10, 30]: 25 µg/mL
MIC [11, 31]: 12.5 µg/mL

PRT1067 (KLTSCATNASICGDEARCVRTEKAAYCACRSGFHTVPGQPGCQ; listed as Homo sapiens)
MIC P. mirabilis [1, 32]: 25 µg/mL
MIC P. vulgaris [2, 32]: 50 µg/mL
MIC [3]: 25 µg/mL
MIC M. catarrhalis [4, 32]: 12.5 µg/mL
MIC E. coli BL21 [5, 32]: 50 µg/mL
MIC C. diversus [6, 32]: 25 µg/mL
MIC E. cloacae [7, 32]: 25 µg/mL
MIC S. marcescens [8, 32]: 25 µg/mL
MIC A. hydrophila [9, 32]: 25 µg/mL
MIC K. pneumonia [10, 32]: 12.5 µg/mL
MIC P. aeruginosa [11, 32]: 25 µg/mL

PRT490 (CASAPCRNGGVCREGWNRFICDCIGTGFLGRVCE; listed as Homo sapiens)
MIC against P. mirabilis [1, 33]: 25 µg/mL
MIC against P. vulgaris [2, 33]: 50 µg/mL
MIC [3]: 25 µg/mL
MIC against M. catarrhalis [4, 33]: 12.5 µg/mL
MIC against E. coli BL21 [5, 33]: 50 µg/mL
MIC against C. diversus [6, 33]: 25 µg/mL
MIC against E. cloacae [7, 33]: 25 µg/mL
MIC against S. marcescens [8, 33]: 25 µg/mL
MIC against A. hydrophila [9, 33]: 50 µg/mL
MIC against K. pneumonia [10, 33]: 12.5 µg/mL
MIC against P. aeruginosa [11, 33]: 25 µg/mL

PRT1304 (ARDPCLGHRCHHGKCVATGTSYMCKCAEGYGGDLCD; listed as Homo sapiens)
MIC against P. mirabilis [1, 12]: 12.5 µg/mL
MIC against P. vulgaris [2, 13]: 25 µg/mL
MIC [3]: 25 µg/mL
MIC against M. catarrhalis [4, 14]: 25 µg/mL
MIC against E. coli BL21 [5, 15]: 12.5 µg/mL
MIC against C. diversus [6, 16]: 12.5 µg/mL
MIC against E. cloacae [7, 17]: 12.5 µg/mL
MIC against S. marcescens [8, 18]: 12.5 µg/mL
MIC against A. hydrophila [9, 19]: 25 µg/mL
MIC against K. pneumonia [10, 20]: 12.5 µg/mL
MIC against P. aeruginosa [11, 21]: 25 µg/mL

PRT1116 (DIDECASRPCHHGATCRNLADRYECHCPLGYAGVTCE; listed as Homo sapiens)
MIC P. mirabilis [1, 32]: 50 µg/mL
MIC P. vulgaris [2, 32]: 25 µg/mL
MIC [3]: 25 µg/mL
MIC M. catarrhalis [4, 32]: 25 µg/mL
MIC E. coli BL21 [5, 32]: 12.5 µg/mL
MIC C. diversus [6, 32]: 12.5 µg/mL
MIC E. cloacae [7, 32]: 25 µg/mL
MIC S. marcescens [8, 32]: 12.5 µg/mL
MIC A. hydrophila [9, 32]: 25 µg/mL
MIC K. pneumonia [10, 32]: 12.5 µg/mL
MIC P. aeruginosa [11, 32]: 25 µg/mL

PRT621 (CQCNNNVDPSASGNCDRLTGRCLKCIHNTAGIYCDQCKAGYFGDPLAPNPADKCRA; listed as Homo sapiens)
MIC P. mirabilis [1, 33]: 50 µg/mL
MIC P. vulgaris [2, 33]: 25 µg/mL
MIC [3]: 50 µg/mL
MIC M. catarrhalis [4, 33]: 25 µg/mL
MIC E. coli BL21 [5, 33]: 25 µg/mL
MIC C. diversus [6, 33]: 50 µg/mL
MIC E. cloacae [7, 33]: 50 µg/mL
MIC S. marcescens [8, 33]: 50 µg/mL
MIC A. hydrophila [9, 33]: 25 µg/mL
MIC K. pneumonia [10, 33]: 25 µg/mL
MIC P. aeruginosa [11, 33]: 50 µg/mL

PRT775 (SSLKCPDACNAQHKQCLIKKSGGAPECACVPGYQEDANGNCQ; listed as Homo sapiens)
MIC (μg/mL) P. mirabilis ([1]; P. mirabilis, 10 h cultivation at 37° C., 5×10^5 CFU/mL): 50 µg/mL
MIC (μg/mL) P. vulgaris ([2]; P. vulgaris, 10 h cultivation at 37° C., 5×10^5 CFU/mL): 12.5 µg/mL
MIC [3]: 12.5 µg/mL
MIC (μg/mL) M. catarrhalis ([4]; M. catarrhalis, 10 h cultivation at 37° C., 5×10^5 CFU/mL): 12.5 µg/mL
MIC (μg/mL) E. coli BL21 ([5]; E. coli BL21, 10 h cultivation at 37° C., 5×10^5 CFU/mL): 25 µg/mL
MIC (μg/mL) C. diversus ([6]; C. diversus, 10 h cultivation at 37° C., 5×10^5 CFU/mL): 50 µg/mL
MIC (μg/mL) E. cloacae ([7]; E. cloacae, 10 h cultivation at 37° C., 5×10^5 CFU/mL): 50 µg/mL
MIC (μg/mL) S. marcescens ([8]; S. marcescens, 10 h cultivation at 37° C., 5×10^5 CFU/mL): 50 µg/mL
MIC (μg/mL) A. hydrophila ([9]; A. hydrophila, 10 h cultivation at 37° C., 5×10^5 CFU/mL): 12.5 µg/mL
MIC (μg/mL) K. pneumonia ([10]; K. pneumonia, 10 h cultivation at 37° C., 5×10^5 CFU/mL): 12.5 µg/mL
MIC (μg/mL) P. aeruginosa ([11]; P. aeruginosa, 10 h cultivation at 37° C., 5×10^5 CFU/mL): 50 µg/mL

PRT899 (NINECASNPCLNQGTCIDDVAGYKCNCLLPYTGATCE; listed as Homo sapiens)
MIC [1, 22]: 50 µg/mL
MIC [2, 23]: 12.5 µg/mL
MIC [3]: 12.5 µg/mL
MIC [4, 24]: 12.5 µg/mL
MIC [5, 25]: 12.5 µg/mL
MIC [6, 26]: 50 µg/mL
MIC [7, 27]: 50 µg/mL
MIC [8, 28]: 12.5 µg/mL
MIC [9, 29]: 12.5 µg/mL
MIC [10, 30]: 12.5 µg/mL
MIC [11, 31]: 12.5 µg/mL

PRT1095 (EVQWCGFSPCPHGAQCQPVLQGFECIANAVFNGQSGQ; listed as Homo sapiens)
MIC P. mirabilis [1, 32]: 25 µg/mL
MIC P. vulgaris [2, 32]: 12.5 µg/mL
MIC [3]: 50 µg/mL
MIC M. catarrhalis [4, 32]: 50 µg/mL
MIC E. coli BL21 [5, 32]: 12.5 µg/mL
MIC C. diversus [6, 32]: 25 µg/mL
MIC E. cloacae [7, 32]: 12.5 µg/mL
MIC S. marcescens [8, 32]: 50 µg/mL
MIC A. hydrophila [9, 32]: 25 µg/mL
MIC K. pneumonia [10, 32]: 25 µg/mL
MIC P. aeruginosa [11, 32]: 50 µg/mL

PRT1313 (VADLCQDGHGGCSEHANCSQVGTMVTCTCLPDYEGDGWSCR; listed as Homo sapiens)
MIC against P. mirabilis [1, 12]: 50 µg/mL
MIC against P. vulgaris [2, 13]: 12.5 µg/mL
MIC [3]: 12.5 µg/mL
MIC against M. catarrhalis [4, 14]: 12.5 µg/mL
MIC against E. coli BL21 [5, 15]: 25 µg/mL
MIC against C. diversus [6, 16]: 50 µg/mL
MIC against E. cloacae [7, 17]: 12.5 µg/mL
MIC against S. marcescens [8, 18]: 50 µg/mL
MIC against A. hydrophila [9, 19]: 25 µg/mL
MIC against K. pneumonia [10, 20]: 25 µg/mL
MIC against P. aeruginosa [11, 21]: 50 µg/mL
